Test results taken from patent US20250122223A1, “HETEROCYCLIC COMPOUNDS AS UBIQUITIN SPECIFIC PROTEASE 7 INHIBITORS” (ALMAC DISCOVERY LIMITED, priority 2022, published 2025).
Like-named read-outs stand apart in the source and are kept apart here.

Target: USP7 (Homo sapiens (Human), UniProt Q93009)
Experiment: USP7 fluorescence polarisation (FP) assay with ubiquitin-Lys-TAMRA substrate
Type: biochemical
Conditions: biochemical inhibition
Procedure: USP7 activity was monitored in a fluorescence polarisation (FP) homogeneous assay using the isopeptide ubiquitin-Lys-TAMRA substrate (U-558, Boston Biochem). Full-length USP7 was purchased from Boston Biochem (His6-USP7FL, E-519). Unless otherwise stated, all other reagents were purchased from Sigma-Aldrich. Enzymatic reactions were conducted in black flat-bottom low volume polystyrene 384-well plates (Grenier) and 15 μL total volume. USP7 (2.5 nM, 5 μL) was incubated in assay buffer (50 mM HEPES (pH 7.2), 150 mM NaCl, 5 mM DTT, 0.05% BSA (w/v), 0.05% CHAPS) in the presence or absence of inhibitor (5 μL). Inhibitors were stored as 10 mM DMSO stocks in an inert environment (low humidity, dark, low oxygen, room temperature) using a Storage Pod System and serial dilutions were prepared in buffer just prior to the assay (from 200 to 0.003 μM, 11 dp curve). Following incubation at room temperature for 30 min, the enzymatic reactions were initiated by dispensing the Ub substrate (50 nM, 5 μL). FP was measured every 5 min over a period of 1.5 h (within the linear range of the assay) using a Pherastar FSX (BMG Labtech) exciting at 530 nm and measuring the amount of parallel and perpendicular light at 575 nm. The FP signal was subsequently normalised to the control without compound present. Data were plotted and fitted, and the concentrations resulting in 50% inhibition (IC50) were calculated using the non-linear regression curve fitting model using GraphPad Prism.

[1] = read-out: USP7 IC50 activity (Table 3a, classes)
[2] = unit not given in Table 3b (Table 1 and key of Table 3a use μM), read-out: USP7 IC50 activity (Table 3b)

Chain of USP7 (Q93009 whole entry): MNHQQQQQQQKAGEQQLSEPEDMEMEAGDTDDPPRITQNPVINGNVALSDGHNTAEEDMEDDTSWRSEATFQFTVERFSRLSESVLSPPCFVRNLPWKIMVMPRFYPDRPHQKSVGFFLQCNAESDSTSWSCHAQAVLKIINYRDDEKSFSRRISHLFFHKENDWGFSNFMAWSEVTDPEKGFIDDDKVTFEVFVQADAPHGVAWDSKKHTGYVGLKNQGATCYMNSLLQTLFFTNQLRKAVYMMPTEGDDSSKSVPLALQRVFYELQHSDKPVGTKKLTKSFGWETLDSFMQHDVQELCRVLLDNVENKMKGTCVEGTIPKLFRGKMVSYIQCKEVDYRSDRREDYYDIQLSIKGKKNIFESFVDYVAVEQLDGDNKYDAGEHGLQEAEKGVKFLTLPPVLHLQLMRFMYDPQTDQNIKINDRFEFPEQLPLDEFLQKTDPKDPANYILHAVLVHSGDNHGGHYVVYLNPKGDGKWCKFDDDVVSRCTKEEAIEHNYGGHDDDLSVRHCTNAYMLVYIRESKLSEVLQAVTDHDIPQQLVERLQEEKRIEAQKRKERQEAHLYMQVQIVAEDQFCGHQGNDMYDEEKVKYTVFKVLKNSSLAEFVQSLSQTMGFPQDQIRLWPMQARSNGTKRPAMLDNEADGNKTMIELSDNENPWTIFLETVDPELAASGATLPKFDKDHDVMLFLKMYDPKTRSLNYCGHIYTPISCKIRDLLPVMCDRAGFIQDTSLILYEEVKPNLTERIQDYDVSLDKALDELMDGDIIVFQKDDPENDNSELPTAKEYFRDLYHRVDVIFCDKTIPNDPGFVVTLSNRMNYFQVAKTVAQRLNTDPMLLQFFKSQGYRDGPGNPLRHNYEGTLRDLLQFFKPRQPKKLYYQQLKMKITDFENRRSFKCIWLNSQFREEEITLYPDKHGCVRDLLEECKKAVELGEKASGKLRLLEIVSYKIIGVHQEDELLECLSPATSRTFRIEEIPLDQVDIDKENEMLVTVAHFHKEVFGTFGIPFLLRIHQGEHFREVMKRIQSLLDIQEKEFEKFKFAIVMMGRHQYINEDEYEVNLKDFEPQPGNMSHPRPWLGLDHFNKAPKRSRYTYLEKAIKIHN

| Structure (SMILES) | IC50 [1] | IC50 [2] |
| --- | --- | --- |
| CC1(C)CN[C@@H](c2ccc(-n3c(Cl)cc4c(=O)n(CC5(O)CCN(C(=O)C[C@H](c6ccccc6)C(F)(F)F)CC5)cnc43)cc2)CO1 (mixture of isomers) [Example 10, 6-Chloro-7-(4-((S)-6,6-dimethylmorpholin-3-yl)phenyl)-3-((4-hydroxy-1-((R)-4,4,4-trifluoro-3-phenylbutanoyl)piperidin-4-yl)methyl)-3,7-dihydro-4H-pyrrolo[2,3-d]pyrimidin-4-one and 6-chloro-7-(4-((R)-6,6-dimethylmorpholin-3-yl)phenyl)-3-((4-hydroxy-1-((R)-4,4,4-trifluoro-3-phenylbutanoyl)piperidin-4-yl)methyl)-3,7-dihydro-4H-pyrrolo[2,3-d]pyrimidin-4-one] | < 0.1 µM | 0.017 µM |
| O=C(C[C@H](c1ccccc1)C(F)(F)F)N1CCC(O)(Cn2cnc3c(cc(Cl)n3-c3ccc([C@H]4COCCN4)c(Cl)c3)c2=O)CC1 (mixture of isomers) [Example 86, 6-Chloro-7-(3-chloro-4-((S)-morpholin-3-yl)phenyl)-3-((4-hydroxy-1-((R)-4,4,4-trifluoro-3-phenylbutanoyl)piperidin-4-yl)methyl)-3,7-dihydro-4H-pyrrolo[2,3-d]pyrimidin-4-one and 6-chloro-7-(3-chloro-4-((R)-morpholin-3-yl)phenyl)-3-((4-hydroxy-1-((R)-4,4,4-trifluoro-3-phenylbutanoyl)piperidin-4-yl)methyl)-3,7-dihydro-4H-pyrrolo[2,3-d]pyrimidin-4-one (1:1)] | 0.1 to 0.25 µM | 0.134 µM |
| O=C(C[C@H](c1ccccc1)C(F)(F)F)N1CCC(O)(Cn2cnc3c(cc(Cl)n3-c3ccc([C@H]4COCCN4)c(C(F)(F)F)c3)c2=O)CC1 (mixture of isomers) [Example 87, 6-Chloro-3-((4-hydroxy-1-((R)-4,4,4-trifluoro-3-phenylbutanoyl)piperidin-4-yl)methyl)-7-(4-((S)-morpholin-3-yl)-3-(trifluoromethyl)phenyl)-3,7-dihydro-4H-pyrrolo[2,3-d]pyrimidin-4-one and 6-chloro-3-((4-hydroxy-1-((R)-4,4,4-trifluoro-3-phenylbutanoyl)piperidin-4-yl)methyl)-7-(4-((R)-morpholin-3-yl)-3-(trifluoromethyl)phenyl)-3,7-dihydro-4H-pyrrolo[2,3-d]pyrimidin-4-one (1:1)] | 0.25 to 2 µM | 0.292 µM |
| C[C@H]1CN[C@H](c2ccc(-n3c(Cl)cc4c(=O)n(CC5(O)CCN(C(=O)C6(C)CC6)CC5)cnc43)cc2)CO1 (racemic) [Example 1, rac-6-Chloro-3-((4-hydroxy-1-(1-methylcyclopropane-1-carbonyl)piperidin-4-yl)methyl)-7-(4-((3R,6S)-6-methylmorpholin-3-yl)phenyl)-3,7-dihydro-4H-pyrrolo[2,3-d]pyrimidin-4-one] | < 0.1 µM | 0.03 µM |
| C[C@H]1COC[C@@H](c2ccc(-n3c(Cl)cc4c(=O)n(CC5(O)CCN(C(=O)C6(C)CC6)CC5)cnc43)cc2)N1 (racemic) [Example 2, rac-6-Chloro-3-((4-hydroxy-1-(1-methylcyclopropane-1-carbonyl)piperidin-4-yl)methyl)-7-(4-((3R,5S)-5-methylmorpholin-3-yl)phenyl)-3,7-dihydro-4H-pyrrolo[2,3-d]pyrimidin-4-one] | < 0.1 µM | 0.046 µM |
| O=C(c1ccc(Cl)cc1)N1CCC(O)(Cn2cnc3c(cc(Cl)n3-c3ccc([C@@H]4CO[C@@H](C(F)(F)F)CN4)cc3)c2=O)CC1 (racemic) [Example 9, rac-6-Chloro-3-((1-(4-chlorobenzoyl)-4-hydroxypiperidin-4-yl)methyl)-7-(4-((3R,6R)-6-(trifluoromethyl)morpholin-3-yl)phenyl)-3,7-dihydro-4H-pyrrolo[2,3-d]pyrimidin-4-one] | 0.25 to 2 µM | 0.42 µM |
| C[C@H]1CN[C@H](c2ccc(-n3ccc4c(=O)n(CC5(O)CCN(C(=O)c6ccc(Cl)cc6)CC5)cnc43)cc2)CO1 (racemic) [Example 17, rac-3-((1-(4-Chlorobenzoyl)-4-hydroxypiperidin-4-yl)methyl)-7-(4-((3R,6S)-6-methylmorpholin-3-yl)phenyl)-3,7-dihydro-4H-pyrrolo[2,3-d]pyrimidin-4-one] | 0.1 to 0.25 µM | 0.175 µM |
| O=C(N1CCC(O)(Cn2cnc3c(cc(Cl)n3-c3ccc([C@@H]4COC5(CCC5)CN4)cc3)c2=O)CC1)C1(C2CC2)CC1 (racemic) [Example 43, 7-(4-(5-Oxa-8-azaspiro[3.5]nonan-7-yl)phenyl)-3-((1-([1,1′-bi(cyclopropane)]-1-carbonyl)-4-hydroxypiperidin-4-yl)methyl)-6-chloro-3,7-dihydro-4H-pyrrolo[2,3-d]pyrimidin-4-one] | < 0.1 µM | 0.05 µM |
| O=C(c1ccc(Cl)cc1)N1CCC(O)(Cn2cnc3c(cc(Cl)n3-c3ccc([C@@H]4COC5(CCC5)CN4)cc3)c2=O)CC1 (racemic) [Example 44, 7-(4-(5-Oxa-8-azaspiro[3.5]nonan-7-yl)phenyl)-6-chloro-3-((1-(4-chlorobenzoyl)-4-hydroxypiperidin-4-yl)methyl)-3,7-dihydro-4H-pyrrolo[2,3-d]pyrimidin-4-one] | 0.1 to 0.25 µM | 0.113 µM |
| CC1(C)CN[C@@H](c2ccc(-n3c(Cl)cc4c(=O)n(CC5(O)CCN(C(=O)c6ccc(Cl)cc6)CC5)cnc43)cc2)CO1 (single isomer, unassigned) [Example 23] | 0.1 to 0.25 µM | 0.143 µM |
| C[C@H]1COC[C@@H](c2ccc(-n3c(Cl)cc4c(=O)n(CC5(O)CCN(C(=O)c6ccc(Cl)cc6)CC5)cnc43)cc2)N1 (single isomer, unassigned) [Example 26] | 0.1 to 0.25 µM | 0.161 µM |
| C[C@@H]1COC[C@H](c2ccc(-n3c(Cl)cc4c(=O)n(CC5(O)CCN(C(=O)c6ccc(Cl)cc6)CC5)cnc43)cc2)N1 (single isomer, unassigned) [Example 27] | 0.1 to 0.25 µM | 0.194 µM |
| CC1(C)CN[C@@H](c2ccc(-n3c(Cl)cc4c(=O)n(CC5(O)CCN(C(=O)c6ccc(F)cc6)CC5)cnc43)cc2)CO1 (single isomer, unassigned) [Example 28] | 0.1 to 0.25 µM | 0.218 µM |
| CC1(C)CN[C@H](c2ccc(-n3c(Cl)cc4c(=O)n(CC5(O)CCN(C(=O)c6ccc(F)cc6)CC5)cnc43)cc2)CO1 (single isomer, unassigned) [Example 29] | 0.1 to 0.25 µM | 0.118 µM |
| C[C@H]1CN[C@H](c2ccc(-n3c(Cl)cc4c(=O)n(CC5(O)CCN(C(=O)[C@@]6(C)C[C@@H]6C(F)(F)F)CC5)cnc43)cc2)CO1 (single isomer, unassigned) [Example 33, 6-Chloro-3-((4-hydroxy-1-((1R,2R)-1-methyl-2-(trifluoromethyl)cyclopropane-1-carbonyl)piperidin-4-yl)methyl)-7-(4-((3R,6S)-6-methylmorpholin-3-yl)phenyl)-3,7-dihydro-4H-pyrrolo[2,3-d]pyrimidin-4-one or 6-chloro-3-((4-hydroxy-1-((1S,2S)-1-methyl-2-(trifluoromethyl)cyclopropane-1-carbonyl)piperidin-4-yl)methyl)-7-(4-((3R,6S)-6-methylmorpholin-3-yl)phenyl)-3,7-dihydro-4H-pyrrolo[2,3-d]pyrimidin-4-one] | 0.1 to 0.25 µM | 0.226 µM |
| CC1(C)CN[C@H](c2ccc(-n3c(Cl)cc4c(=O)n(CC5(O)CCN(C(=O)c6ccc(Cl)cc6)CC5)cnc43)cc2)CO1 (single isomer, unassigned) [Example 34] | < 0.1 µM | 0.088 µM |
| CC1(C)CN[C@H](c2ccc(-n3c(Cl)cc4c(=O)n(CC5(O)CCN(C(=O)C6(C7CC7)CC6)CC5)cnc43)cc2)CO1 (single isomer, unassigned) [Example 40] | 0.1 to 0.25 µM | 0.156 µM |
| CC1(C)CN[C@H](c2ccc(-n3c(Cl)cc4c(=O)n(CC5(O)CCN(C(=O)C6(C7CC7)CC6)CC5)cnc43)cc2)CO1 (single isomer, unassigned) [Example 41] | < 0.1 µM | 0.079 µM |
| O=C(c1ccc(Cl)cc1)N1CCC(O)(Cn2cnc3c(cc(Cl)n3-c3ccc([C@H]4CO[C@H](C5CC5)CN4)cc3)c2=O)CC1 (single isomer, unassigned) [Example 61] | 0.1 to 0.25 µM | 0.128 µM |
| O=C(c1ccc(Cl)cc1)N1CCC(O)(Cn2cnc3c(cc(Cl)n3-c3ccc([C@@H]4CO[C@@H](C5CC5)CN4)cc3)c2=O)CC1 (single isomer, unassigned) [Example 64] | 0.1 to 0.25 µM | 0.11 µM |
| C[C@H]1CN[C@@H](c2ccc(-n3c(Cl)cc4c(=O)n(CC5(O)CCN(C(=O)c6ccc(Cl)cc6)CC5)cnc43)cc2)CO1 (single isomer, unassigned) [Example 68] | 0.25 to 2 µM | 0.702 µM |
| C[C@@H]1CN[C@H](c2ccc(-n3c(Cl)cc4c(=O)n(CC5(O)CCN(C(=O)c6ccc(Cl)cc6)CC5)cnc43)cc2)CO1 (single isomer, unassigned) [Example 69] | 0.25 to 2 µM | 0.586 µM |
| CC1(C(=O)N2CCC(O)(Cn3cnc4c(cc(Cl)n4-c4ccc([C@H]5COCCN5)cc4)c3=O)CC2)CC1 (single isomer, unassigned) [Example 70] | < 0.1 µM | 0.022 µM |
